# In patent US20060084659A1, “Augmentation of psychotherapy with cannabinoid reuptake inhibitors” (priority 2004, published 2006):
# Legend:
# [1] = test system: Adult male Sprague-Dawley rats; experiment: FPS in fear-conditioned animals without cue re-exposure; format: in vivo, rat; conditions: 10 mg/kg AM404 or 5 mg/kg rimonabant; tested 1 hr following drug administration
# Method: (§1) Fear conditioning: All training and testing trials were performed in standardized chambers optimized for the measurement of fear-potentiated startle (see Walker et al. (2002) J. Neurosci. 22: 2343-2351). Animals were pre-exposed to the chambers for 10 min on each of 2 days prior to training for habituation purposes and to minimize the effects of contextual conditioning. On 2 consecutive days following habituation, rats were returned to the same chambers and presented with 10 pairings of a light (3.7 sec) co-terminating with a 0.4-mA, 0.5-sec shock (3.6-min inter-trial interval).
# Matching: Twenty-four hours following the last fear-conditioning session, animals were returned to the same chambers and presented with startle stimuli (50-msec, 95-dB white-noise bursts) in the presence or absence of the light conditioned stimulus (light-CS). Increased startle in the presence of the light-CS was taken as a measure of conditioned fear, and the magnitude of the fear response was calculated as the percentage by which startle increased when the light-CS was presented in compound with the startle stimulus versus when it was omitted (fear-potentiated startle or FPS). Using these measurements, animals were divided into groups displaying approximately equal levels of FPS prior to drug treatment and extinction training. […]
# [2] = test system: Adult male Sprague-Dawley rats; experiment: Extinction of conditioned fear measured by fear-potentiated startle (FPS) after extinction training; format: in vivo, rat; conditions: for fear potentiated startle (FPS) after extinction training: 10 mg/kg AM404, 5 mg/kg rimonabant, alone or together, 30 trial extinction, 24 hrs post extinction training; for fear (FPS) vs vehicle: 10 mg/kg i.p., 30-trial extinction; for extinction of fear (summary of Examples 1-10): systemic application in rats, fear-potentiated startle; for conditioned fear following extinction training vs vehicle: p<0.01
# Method: Animals: Adult male Sprague-Dawley rats (Charles River, Raleigh, N.C., 350-450 g) were used in the present studies. Animals were housed in pairs in a temperature-controlled animal colony, with ad libitum access to food and water, and maintained on a 12 hr light/dark cycle.
# as §1
# Matching: Twenty-four hours following the last fear-conditioning session, animals were returned to the same chambers and presented with startle stimuli (50-msec, 95-dB white-noise bursts) in the presence or absence of the light conditioned stimulus (light-CS). Increased startle in the presence of the light-CS was taken as a measure of conditioned fear, and the magnitude of the fear response was calculated as the percentage by which startle increased when the light-CS was presented in compound with the startle stimulus versus when it was omitted (fear-potentiated startle or FPS). Using these measurements, animals were divided into groups displaying approximately equal levels of FPS prior to drug treatment and extinction training.
# Extinction training: Five days following the last fear conditioning trial, animals were injected intraperitoneally with a test compound or its vehicle in 1 mL/kg volumes and then immediately returned to the same chambers and presented with 15, 30 or 90 presentations of the light-CS in the absence of footshock (3.7-sec light, 30-sec inter-trial interval). One hour following extinction training, a subset of animals was given a short test consisting of startle stimuli in the presence or absence of the light-CS (2-5 light-startle compounds, values shown are averages of all trials). Twenty-four hrs post-extinction training, all animals were tested for the presence of fear-potentiated startle (15 light-startle compounds).
# Statistics: Comparisons were made across drug-treatment groups at each test (e.g. 24-hr groups were compared across treatment groups) using ANOVA or Student's t-test with drug or dose as the independent measure, and using Fischer's LSD test for post-hoc analysis.
# [3] = test system: Adult male Sprague-Dawley rats; experiment: Shock-induced reinstatement of fear; format: in vivo, rat
# Method: Reinstatement: Animals that had been previously fear-conditioned and extinction-trained were returned to the testing chamber 48 hours and sometimes 96 hours following extinction training and presented with 3 footshocks in the absence of the light-CS (0.4 mA, 0.5 sec shock, 2 min inter-trial interval). Immediately following the unpaired shocks, animals were tested for the presence of fear-potentiated startle (15 light-startle compounds).
# Shock-induced reinstatement was examined 2 days following treatment with AM404 or vehicle during extinction. Previous studies have shown that the level of fear following reinstatement is dependent both on the level of the stressor and the amount of previous extinction, as long as the stressor is delivered in the same context as the original training context (Rescorla & Heth (1975). J. Exp. Psychol. Anim. Behav. Process. 1(1): 88-96; Bouton & King (1983) J. Exp. Psychol. Anim. Behav. Process. 9: 248-265). As animals were matched for equivalent FPS prior to extinction training, the susceptibility of animals to reinstatement can be taken as a secondary measure of the strength of extinction training, and perhaps as a preliminary measure of the resiliency of these inhibitory extinction memories to stressors. […]
# [4] = test system: Adult male Sprague-Dawley rats; experiment: Shock reactivity, baseline startle and activity measures; format: in vivo, rat; conditions: 10 mg/kg
# Method: Shock Reactivity, Startle, and Activity Measures: Animals that had been previously fear-conditioned were injected with AM404, placed in the training/testing chambers, and presented with 3 unpaired shocks and 42 startle stimuli (0.4-mA, 0.5-sec shocks, 95-dB noise-burst startle). The same group of animals was returned to the same chambers 3 d later, injected with vehicle, and presented with an identical behavioral test. The values shown are the mean integrated voltages of the accelerometers measured over 200-msec periods beginning at the onset of either the shocks or the startle stimuli. Additionally, a measure of spontaneous motor activity was derived from the mean displacement of the accelerometers in the 2 min prior to delivery of the first shock, while animals were exploring the chambers.
# This experiment examined behavioral effects engendered by AM404 treatment. These included the effect of 10 mg/kg AM404 on: 1) shock-reactivity as a measure of pain sensitivity; 2) baseline startle as one measure of anxiety; and 3) general motor activity within the training chambers. Animals were fear-conditioned and then returned to the training chamber several days later and administered 10 mg/kg AM404. Following drug administration, animals were presented with 3 shocks and 42 startle stimuli identical to those used in the above studies. Subsequently, the same animals were returned to the testing chamber 3 days later, injected with vehicle, and similarly tested.
# [5] = intra-amygdala infusions; fear-potentiated startle (AP5 also freezing); cited from earlier work
# [6] = PD98059 systemic and intra-amygdala infusions; AP5 intra-amygdala infusions; cited from earlier work
# [7] = cited from earlier work
# [8] = doses greater than 5 mg/kg; Herzberg et al. 1997; cited from earlier work
compound,measurement,setting,value
"CCCCC/C=C\C/C=C\C/C=C\C/C=C\CCCC(=O)Nc1ccc(O)cc1 [AM404, N-(4-hydroxyphenyl)arachidonamide]",FPS when cue re-exposure omitted,[1],no effect on FPS
same,fear potentiated startle (FPS) after extinction training,[2],significant extinction
same,fear (FPS) vs vehicle,"[2]; 1 hr post extinction, p<0.05",significantly less fear than vehicle-treated controls
same,fear (FPS) vs vehicle,"[2]; 24 hrs post-extinction, post-hoc p<0.05",significantly less than vehicle-treated animals
same,extinction retention (fear in the presence of the CS),"[2]; prior to 30-trial extinction training, 24 hrs following extinction training, main effect of drug p<0.05",enhancement of extinction retention
same,extinction of fear (summary of Examples 1-10),[2],dose-dependently enhances extinction of fear
same,reinstatement-induced conditioned fear,"[3]; 2 mg/kg and 10 mg/kg groups pooled, drug given prior to extinction training, 48 hrs prior to reinstatement with 3 footshocks, p<0.05",less reinstatement-induced conditioned fear
same,within-session extinction (change in FPS) after reinstatement,"[3]; first 4 trials of testing following reinstatement, Trial X Drug p<0.02",little change
same,shock reactivity (pain sensitivity),"[4]; 3 footshocks, p>0.5",little effect
same,baseline startle (anxiety),[4]; p=0.45,non-significant trend toward decreased baseline startle
same,overall locomotor activity levels in the testing chamber,[4]; p>0.5,little effect
NC(CCCP(=O)(O)O)C(=O)O (stereo not shown) [AP5],extinction,[5],block extinction
same,fear conditioning,[6],block fear conditioning
"N[C@@H]1CONC1=O [DCS, D-cycloserine]",half-life,[7]; in vivo,10 h
same,route of excretion,[7]; in vivo,primarily renally excreted
same,time of peak blood levels after dosing,[7]; in vivo,3 to 8 h
same,side effects,"[7]; infrequent, subjects on chronic dosing schedules, generally chronically ill with tuberculosis","drowsiness, headache, confusion, tremor, vertigo, and memory difficulties, paresthesias, and seizure"
COc1cccc(-c2cc(=O)c3ccccc3o2)c1N [PD98059],extinction,[5],disrupt extinction
same,fear conditioning,[6],disrupt fear-conditioning
"NC(=O)c1cccc(-c2cccc(OC(=O)NC3CCCCC3)c2)c1 [URB597, cyclohexylcarbamic acid 3′-carbamoylbiphenyl-3-yl ester]",reduction in fear within the testing session,"[2]; 15-trial extinction, relative to animals receiving no drug",greater reductions in fear within the testing session
same,average decrease in FPS relative to pre-extinction levels,"[2]; 15-trial extinction, testing sessions 48 and 96 hours after extinction training",approximately 30%
same,extinction retention (fear in the presence of the CS),"[2]; prior to 15-trial extinction training, 48 hrs following extinction training",enhancement of extinction retention
same,extinction of fear (summary of Examples 1-10),[2],dose-dependently enhances extinction of fear
"Cc1c(C(=O)c2cccc3ccccc23)c2cccc3c2n1[C@H](CN1CCOCC1)CO3 [WIN 55-212,2]",extinction retention (reduction in fear),[2]; 5 mg/kg single dose prior to 30-trial extinction training,did not augment the non-significant reduction in fear
same,locomotor and analgesic effects,[8],prominent locomotor and analgesic effects
Cc1c(C(=O)NN2CCCCC2)nn(-c2ccc(Cl)cc2Cl)c1-c1ccc(Cl)cc1 [rimonabant],FPS when cue re-exposure omitted,[1],no effect on FPS
same,conditioned fear following extinction training vs vehicle,"[2]; 1.5 mg/kg i.p., 90-trial extinction, 24 hrs post-extinction",significantly higher levels of conditioned fear than vehicle-treated controls
same,conditioned fear following extinction training vs vehicle,"[2]; 5 mg/kg i.p., 90-trial extinction, 24 hrs post-extinction",significantly higher levels of conditioned fear than vehicle-treated controls
same,fear potentiated startle (FPS) after extinction training,[2],no decrease in fear potentiated startle
same,extinction retention (fear in the presence of the light-CS),"[2]; 90-trial extinction, acute administration immediately prior to extinction training, tested 24 hrs following extinction training",profound disruption of extinction retention
same,extinction of fear (summary of Examples 1-10),[2],dose-dependently blocks extinction of fear
